Test results taken from the NIST ThermoML archive (doi:10.1021/acs.jced.8b00975).

Conditions: Liquid, Vibrating tube method

C=C(C)C(=O)OCCN(C)C [2-(dimethylamino)ethyl methylpropenoate]
mass density [kg/m3]
Conditions	100 kPa	5000 kPa	10000 kPa	15000 kPa	20000 kPa	25000 kPa	30000 kPa	35000 kPa
293.15 K	933.13	936.87	940.43	943.83	947.11	950.3	953.43	956.52
303.15 K	923.03	926.88	930.61	934.24	937.79	941.28	944.74	948.19
313.15 K	914.01	917.99	921.97	925.87	929.71	933.48	937.2	940.87

CCCCO [butan-1-ol]
mass density [kg/m3]
Conditions	100 kPa	5000 kPa	10000 kPa	15000 kPa	20000 kPa	25000 kPa	30000 kPa	35000 kPa
293.15 K	809.28	813.04	816.54	819.83	822.97	826	828.99	831.99
303.15 K	801.9	806	809.77	813.26	816.52	819.61	822.58	825.48
313.15 K	794.32	798.42	802.22	805.8	809.2	812.49	815.73	818.97

CCO [ethanol]
mass density [kg/m3]
Conditions	100 kPa	5000 kPa	10000 kPa	15000 kPa	20000 kPa	25000 kPa	30000 kPa	35000 kPa
293.15 K	788.94	793.35	797.51	801.44	805.18	808.74	812.17	815.49
303.15 K	780.83	785.54	789.89	793.92	797.7	801.28	804.72	808.06
313.15 K	772.04	776.85	781.35	785.59	789.62	793.47	797.2	800.84

CO [methanol]
mass density [kg/m3]
Conditions	100 kPa	5000 kPa	10000 kPa	15000 kPa	20000 kPa	25000 kPa	30000 kPa	35000 kPa
293.15 K	791.15	795.92	800.41	804.64	808.67	812.52	816.25	819.89
303.15 K	781.84	786.9	791.61	796.01	800.14	804.05	807.78	811.37
313.15 K	772.35	777.48	782.37	786.99	791.38	795.59	799.69	803.73

CCCCCO [pentan-1-ol]
mass density [kg/m3]
Conditions	100 kPa	5000 kPa	10000 kPa	15000 kPa	20000 kPa	25000 kPa	30000 kPa	35000 kPa
293.15 K	815.25	818.83	822.19	825.37	828.41	831.36	834.24	837.11
303.15 K	808.05	811.93	815.5	818.82	821.92	824.88	827.74	830.55
313.15 K	800.67	804.61	808.28	811.75	815.06	818.26	821.41	824.56

CCCO [propan-1-ol]
mass density [kg/m3]
Conditions	100 kPa	5000 kPa	10000 kPa	15000 kPa	20000 kPa	25000 kPa	30000 kPa	35000 kPa
293.15 K	803.17	807.25	811.02	814.54	817.87	821.05	824.15	827.21
303.15 K	795.52	799.83	803.8	807.49	810.95	814.23	817.38	820.48
313.15 K	787.3	791.61	795.67	799.52	803.19	806.72	810.15	813.5
